Results reported in US20130337564A1, “Treatment of Pluripotent Cells” (Janssen Biotech, Inc., priority 2012, published 2013).
Where “and” joins values, the source holds several entries; their conditions need not be identical. Equal entries are not always repeated.

Test system: cells expressing pluripotency markers derived from human embryonic stem cells
Test: MTS viability (toxicity) assay of cells expressing pluripotency markers
Format: cell-based
Parameters: Raw data (duplicate), first replicate / Average: unit not given here
Details: for viability at 10 µM: Homo sapiens, Embryonic stem cell; for viability at 10 µM / % Control: viability of cells expressing pluripotency markers, relative to control; for Raw data (duplicate), first replicate / Raw data (duplicate), second replicate: MTS viability assay raw reading; for Raw data (duplicate), first replicate: replicate 1; for Raw data (duplicate), second replicate: replicate 2; for Average: average of duplicate MTS raw readings
Outline: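 A GSK-3B inhibitor library was screened for toxicity to pluripotency-marker-expressing cells. Compound was given in DMEM:F12 with 0.5% FCS and 100 ng/ml Activin A for two days, then replaced by medium with 2% FCS and Activin A. On day 4, MTS absorbance at 490 nm gave viability as percent of Activin A plus Wnt3a control wells.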

Structure (SMILES) | viability at 10 µM | Raw data (duplicate), first replicate | Raw data (duplicate), second replicate | Average | % Control
O=C1NC(=O)C(c2cn(CCCO)c3ncccc23)=C1c1ccccc1C(F)(F)F [Compound 16, 3-[1-(3-Hydroxypropyl)-1H-pyrrolo[2,3-b]pyridin-3-yl]-4-[2-(trifluoromethyl)phenyl]-1H-pyrrole-2,5-dione] | 73.7% | 0.641 | 0.601 | 0.621 | –
O=C1NC(=O)C(c2cn(CCCO)c3ncccc23)=C1c1cccs1 [Compound 17, 3-[1-(3-Hydroxypropyl)-1H-pyrrolo[2,3-b]pyridin-3-yl]-4-thiophen-2-yl-1H-pyrrole-2,5-dione] | 99.1% | 0.803 | 0.782 | 0.792 | –
O=C1NC(=O)C(c2cn(CCCO)c3ncccc23)=C1c1cc(Cl)sc1Cl [Compound 18, 3-(2,5-Dichlorothiophen-3-yl)-4-[1-(3-hydroxypropyl)-1H-pyrrolo[2,3-b]pyridin-3-yl]-1H-pyrrole-2,5-dione] | 69.9% | 0.637 | 0.554 | 0.595 | –
COCCCn1cc(C2=C(c3ccccc3O)C(=O)NC2=O)c2cccnc21 [Compound 22, 3-(2-Hydroxyphenyl)-4-{1-[3-(methyloxy)propyl]-1H-pyrrolo[2,3-b]pyridin-3-yl}-1H-pyrrole-2,5-dione] | 108% | 0.900 | 0.877 | 0.888 | –
COc1ccccc1C1=C(c2cn(-c3ccc4ccccc4c3)c3ncccc23)C(=O)NC1=O [Compound 23, 3-[2-(Methyloxy)phenyl]-4-(1-naphthalen-2-yl-1H-pyrrolo[2,3-b]pyridin-3-yl)-1H-pyrrole-2,5-dione] | 102% | 0.882 | 0.748 | 0.815 | –
COc1ccccc1C1=C(c2cn(CCCNC(=O)OC(C)(C)C)c3ncccc23)C(=O)NC1=O [Compound 26, 1,1-Dimethylethyl [3-(3-{4-[2-(methyloxy)phenyl]-2,5-dioxo-2,5-dihydro-1H-pyrrol-3-yl}-1H-pyrrolo[2,3-b]pyridin-1-yl)propyl]carbamate] | 76.4% | 0.568 | 0.709 | 0.639 | –
COc1ccccc1C1=C(c2cn(CCCNC(C)=O)c3ncccc23)C(=O)NC1=O [Compound 27, N-[3-(3-{4-[2-(Methyloxy)phenyl]-2,5-dioxo-2,5-dihydro-1H-pyrrol-3-yl}-1H-pyrrolo[2,3-b]pyridin-1-yl)propyl]acetamide] | 7.2% | 0.160 | 0.186 | 0.173 | –
O=C1NC(=O)C2=C1c1cn(c3ccccc13)CCOCCOCCOCCn1cc2c2ccccc21 [Compound 163, 6,7,9,10,12,13,15,16-Octahydro-23H-5,26:17,22-di(metheno)dibenzo[k,q]pyrrolo[3,4-n][1,4,7,10,19]trioxadiazacyclohenicosine-23,25(24H)-dione] | – | 0.678 | 0.661 | 0.670 | 80.8%
O=C1NC(=O)C2=C1c1cn(c3ccccc13)CCOCCOCCn1cc2c2ccccc21 [Compound 164, 6,7,9,10,12,13-Hexahydro-20H-5,23:14,19-di(metheno)dibenzo[h,n]pyrrolo[3,4-k][1,4,7,16]dioxadiazacyclooctadecine-20,22(21H)-dione] | – | 0.603 | 0.584 | 0.593 | 69.4%
O=C1NC(=O)C2=C1c1cn(c3ccccc13)CCOCCOCCOCCOCCn1cc2c2ccccc21 [Compound 165, 10,11,13,14,16,17,19,20,22,23-Decahydro-1H-9,4:24,29-di(metheno)dibenzo[n,t]pyrrolo[3,4-q][1,4,7,10,13,22]tetraoxadiazacyclotetracosine-1,3(2H)-dione] | – | 0.690 | 0.674 | 0.682 | 83.3%
O=C(Nc1ccc(C(=O)N2CC3CSCCN3Cc3ccccc32)c(Cl)c1)c1cc(Cl)cc(Cl)c1 (stereo not drawn) [Compound 166, 3,5-Dichloro-N-[3-chloro-4-(3,4,12,12a-tetrahydro-1H-[1,4]thiazino[3,4-c][1,4]benzodiazepin-11(6H)-ylcarbonyl)phenyl]benzamide] | 74.8% | 0.615 | 0.635 | 0.625 | –
O=C1NC(=O)C2=C1c1cn(c3ncccc13)CCOCCOCCOCCOCCOCCn1cc2c2cccnc21 [Compound 168, 10,11,13,14,16,17,19,20,22,23,25,26-Dodecahydro-1H-9,4:27,32-di(metheno)dipyrido[2,3-q:3′,2′-w]pyrrolo[3,4-t][1,4,7,10,13,16,25]pentaoxadiazacycloheptacosine-1,3(2H)-dione] | – | 0.610 | 0.628 | 0.619 | 73.9%
O=C1NC(=O)C2=C1c1cn(c3ncccc13)CCOCCOCCOCCOCCn1cc2c2cccnc21 [Compound 169] | – | 0.681 and 0.636 | 0.698 and 0.621 | 0.689 and 0.629 | 84.5% and 75.4%
CN(C)CCCn1cc(C2=C(c3cccc4ccccc34)C(=O)NC2=O)c2cccnc21 [Compound 175, 3-{1-[3-(Dimethylamino)propyl]-1H-pyrrolo[2,3-b]pyridin-3-yl}-4-naphthalen-1-yl-1H-pyrrole-2,5-dione] | 3% | 0.135 | 0.158 | 0.146 | –
O=C1NC(=O)C2=C1c1cn(c3ncccc13)CCOCCOCCn1cc2c2cccnc21 [Compound 180, 6,7,9,10,12,13-Hexahydro-20H-5,23:14,19-di(metheno)dipyrido[2,3-h:3′,2′-n]pyrrolo[3,4-k][1,4,7,16]dioxadiazacyclooctadecine-20,22(21H)-dione] | – | 0.141 and 0.611 | 0.128 and 0.628 | – | –
O=C1NC(=O)C(c2cn(CCCO)c3ncccc23)=C1c1cn(CCCO)cn1 [Compound 182, 3-[1-(3-Hydroxypropyl)-1H-imidazol-4-yl]-4-[1-(3-hydroxypropyl)-1H-pyrrolo[2,3-b]pyridin-3-yl]-1H-pyrrole-2,5-dione] | 100% | 0.802 | 0.801 | 0.802 | –
O=C1NC(=O)C(c2cn(CCCO)c3ncccc23)=C1c1cn(CCO)cn1 [Compound 183, 3-[1-(2-Hydroxyethyl)-1H-imidazol-4-yl]-4-[1-(3-hydroxypropyl)-1H-pyrrolo[2,3-b]pyridin-3-yl]-1H-pyrrole-2,5-dione] | 82.6% | 0.792 | 0.572 | 0.682 | –
O=C1NC(=O)C(c2cn(CCCO)c3ncccc23)=C1c1ccn(CCCO)n1 [Compound 185, 3-[1-(3-Hydroxypropyl)-1H-pyrazol-3-yl]-4-[1-(3-hydroxypropyl)-1H-pyrrolo[2,3-b]pyridin-3-yl]-1H-pyrrole-2,5-dione] | 104% | 0.830 | 0.807 | 0.818 | –
Cn1ccc(C2=C(c3cn(CCCO)c4ncccc34)C(=O)NC2=O)n1 [Compound 209] | 121% | 0.971 | 0.913 | 0.942 | –
COc1ccccc1C1=C(c2cn(-c3cccnc3)c3ccccc23)C(=O)NC1=O [Compound 216, 3-[2-(Methyloxy)phenyl]-4-(1-pyridin-3-yl-1H-indol-3-yl)-1H-pyrrole-2,5-dione] | 92.2% | 0.768 | 0.724 | 0.746 | –
O=C1NC(=O)C(c2cn(-c3cncnc3)c3ccccc23)=C1c1cn(CCO)c2ccccc12 [Compound 230, 3-[1-(2-Hydroxyethyl)-1H-indol-3-yl]-4-(1-pyrimidin-5-yl-1H-indol-3-yl)-1H-pyrrole-2,5-dione] | 81.8% | 0.680 | 0.663 | 0.671 | –
Cn1cc(C2=C(c3nn(CCCn4ccnc4)c4ccccc34)C(=O)NC2=O)c2cc(Cl)ccc21 [Compound 231, 3-(5-Chloro-1-methyl-1H-indol-3-yl)-4-{1-[3-(1H-imidazol-1-yl)propyl]-1H-indazol-3-yl}-1H-pyrrole-2,5-dione] | 76.7% | 0.640 | 0.636 | 0.638 | –
Cn1cc(C2=C(c3nn(CCCn4ccnn4)c4ccccc34)C(=O)NC2=O)c2cc(Cl)ccc21 [Compound 232, 3-(5-Chloro-1-methyl-1H-indol-3-yl)-4-{1-[3-(1H-1,2,3-triazol-1-yl)propyl]-1H-indazol-3-yl}-1H-pyrrole-2,5-dione] | 87.3% | 0.720 | 0.697 | 0.709 | –
